According to patent US20040229251A1, “Detection of guanylyl and adenylyl cyclase activity” (The Regents of the University of Michigna, priority 2003, published 2004):

Assays:
VC1 and ACGC domains = target: T1, VC1 and ACGC domains (UniProt P26769+P30803, D1018C/K938E); assay: guanylyl cyclase activity in the presence of Mn2+, BODIPY FL-GTPγS as substrate; format: biochemical; details: 5 mM Mg2+ and 5 mM Mn2+ vs 10 mM Mg2+
T1 construct: The soluble intracellular (C1 and C2) domains of adenylyl cyclase were utilized; The mutations to enhance guanylyl cyclase activity are in the C2 domain
Protocol: This Example describes the effect of Mn^2+ on guanylyl cyclase activity. All assays were performed at 22° C. in the presence of 2 μM BODIPY FL-GTPγS and the presence of 5 mM Mg ^2+ and 5 mM Mn^2+ or 10 mM Mg^2+ and the absence or presence of 100 μM forskolin (Fsk). Assays were performed in a 96 well, low fluorescence microtitre plate using a fluorescence plate reader. Excitation and emission wavelengths were 485 and 525 nm respectively.
The linear portion of the progress curves from data in FIG. 2B was fitted by linear regression with respect to time. The individual rates are plotted against the concentration of the VC1 domain.

[1] = test system: wild type adenylyl cyclases (ACs); details: addition of Mn2+ compared with Mg2+; cited from earlier work
[2] = target: T2, membrane-bound form of AC1 (adenylyl cyclase type I) expressed in sf9 cells (Homo sapiens, UniProt Q08828); assay: membrane cyclase fluorescence assay; format: biochemical
T2 construct: made in house; host or cells: sf9 cells
Protocol: The activity of a membrane-bound form of AC1 (adenylyl cyclase type I) expressed in sf9 cells was measured using the fluorescence assay described above.

T2 sequence (Q08828 whole entry): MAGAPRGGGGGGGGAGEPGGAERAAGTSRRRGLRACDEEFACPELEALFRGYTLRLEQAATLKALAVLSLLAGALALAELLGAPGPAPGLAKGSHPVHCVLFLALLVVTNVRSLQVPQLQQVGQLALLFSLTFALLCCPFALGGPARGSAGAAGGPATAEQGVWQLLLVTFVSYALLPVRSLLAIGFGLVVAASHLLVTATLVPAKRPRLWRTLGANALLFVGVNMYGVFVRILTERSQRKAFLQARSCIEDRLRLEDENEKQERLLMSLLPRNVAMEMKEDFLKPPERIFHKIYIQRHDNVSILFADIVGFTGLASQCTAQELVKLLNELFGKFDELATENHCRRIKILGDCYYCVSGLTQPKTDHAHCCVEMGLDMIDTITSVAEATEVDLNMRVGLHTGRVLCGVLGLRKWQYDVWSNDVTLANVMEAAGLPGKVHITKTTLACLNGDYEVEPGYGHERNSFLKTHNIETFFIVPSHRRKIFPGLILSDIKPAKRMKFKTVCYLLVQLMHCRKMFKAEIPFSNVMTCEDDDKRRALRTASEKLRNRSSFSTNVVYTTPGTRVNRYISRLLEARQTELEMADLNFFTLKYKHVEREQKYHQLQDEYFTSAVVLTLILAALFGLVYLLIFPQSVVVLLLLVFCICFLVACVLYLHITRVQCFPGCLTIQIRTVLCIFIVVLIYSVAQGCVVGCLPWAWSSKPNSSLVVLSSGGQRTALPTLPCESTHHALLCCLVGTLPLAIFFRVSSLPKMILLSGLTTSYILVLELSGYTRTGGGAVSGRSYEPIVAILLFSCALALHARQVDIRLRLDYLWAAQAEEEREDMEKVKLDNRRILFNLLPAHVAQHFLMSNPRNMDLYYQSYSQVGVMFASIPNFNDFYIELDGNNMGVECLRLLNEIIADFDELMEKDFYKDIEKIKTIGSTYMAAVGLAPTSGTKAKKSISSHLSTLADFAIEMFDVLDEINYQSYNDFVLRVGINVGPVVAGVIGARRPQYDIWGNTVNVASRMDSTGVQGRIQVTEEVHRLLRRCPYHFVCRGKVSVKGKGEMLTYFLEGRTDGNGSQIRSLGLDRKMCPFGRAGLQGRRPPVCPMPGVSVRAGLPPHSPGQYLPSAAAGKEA

SMILES: [Mn+2] [Mn^2+]
- enhancement of the forskolin-activated rate of accumulation of BODIPY-thio-pyrophosphate (VC1 and ACGC domains; 100 μM forskolin): over thirty-fold
- effect on basal activity (VC1 and ACGC domains; absence of forskolin): enhanced basal activity significantly
- alteration of the Km for GTP [1]: at least 1000 fold

SMILES: C=C[C@@]1(C)CC(=O)[C@]2(O)[C@@]3(C)[C@@H](O)CCC(C)(C)[C@@H]3[C@H](O)[C@H](OC(C)=O)[C@@]2(C)O1 [forskolin]
- effective concentration to produce the half maximal activation (EC50) [2]: consistent with previously published values
